# Read-outs that look alike come from different tables or passages of the source.
# Assays:
# BRAF^V600E [1] = test system: BRAF^V600E; design: method as in PMID 18942827; conditions: cited from earlier work
# BRAF^V600E [2] = test system: BRAF^V600E; design: method as in PMID 37716963; conditions: cited from earlier work
# four cancer cell lines = test system: four cancer cell lines; design: method as in PMID 37716963; conditions: against four cancer cell lines; cited from earlier work
# caspase-3 = assay: Caspase-3 activation assay; format: cell-based, human; conditions: PC-3 cell line
# Text: Caspase-3 is a key caspase that cleaves numerous cell proteins, resulting in apoptosis. […] They elevated the protein caspase-3 in the PC-3 cancer cell line by around seven to nine times compared to untreated control cells.
# (§1) For more details, see Supplementary Materials. […]
# 4.2.3. Caspase-3 activation assay
# Allow all reagents to reach room temperature before use. Gently mix all liquid reagents prior to use. Determine the number of 8-well strips needed for the assay. Insert these in the frame(s) for current use. Add 100 μl of the Standard Diluent Buffer to the zero standard wells. Well(s) reserved for chromogen blank should be left empty. Add 100 μl of standards and controls or diluted samples to the appropriate microtiter wells. The sample dilution chosen should be optimized for each experimental system. Tap gently on side of plate to mix. Cover wells with plate cover and incubate for 2 hours at room temperature. Thoroughly aspirate or decant solution from wells and discard the liquid, Wash wells 4 times. Pipette 100 μl of Caspase-3 (Active) Detection Antibod y solution into each well except the chromogen blank(s). Tap gently on the side of the plate to mix.
# Cover plate with plate cover and incubate for 1 hour at room temperature. Thoroughly aspirate or decant solution from wells and discard the liquid, Wash well s 4 times. Add 100 μl Anti-Rabbit IgG HRP Working Solution to each well except the chromogen blank(s). Prepare the working dilution as described in Preparing IgG HRP. Cover wells with the plate cover and incubate for 30 minutes at room temperature. Thoroughly aspirate or decant solution from wells and discard the liquid. Wash wells 4 times. Add 100 μl of Stabilized Chromogen to each well. The liquid in the wells will begin to turn blue. Incubate for 30 minutes at room temperature and in the dark. The incuba tion time for chromogen substrate is often determined by the microtiter plate reader used. Many plate readers have the capacity to record a maximum optical density (O.D.) of 2.0. The O.D. values should be monitored, and the substrate reaction stopped befor e the O.D. of […]
# the positive wells exceeds the limits of the instrument. The O.D. values at 450 nm can only be read after the Stop Solution has been added to each well. If using a reader that […]
# 100 μl of Stop Solution to each well. Tap side of plate gently to mix. The solution in the wells should change from blue to yellow. Read the absorbance of each well at 450 nm having blanked the plate reader against a chromogen blank composed of 100 μl each of Stabilized Chromogen and Stop Solution. Read the plate within 2 hours after adding the Stop Solution. Use a curve fitting software to generate the standard curve. A four-parameter algorithm provides the best standard curve fit. Read the concentrations for unknown samples and controls from the standard curve. Multiply value(s) obtained for sample(s) by the appropriate dilution factor to correct for the dilution in step 3. Samples producing signals greater than that of the highest standard should be diluted in Standard Diluent Buffer and reanalyzed. […]
# A standard curve is […]
# prepared from 7human Caspase-8 standard dilutions and human Caspase-8 concentration determined.
# Bcl-2 = Bcl-2 inhibition assay; format: cell-based, human; conditions: PC-3 cell line
# Protocol: as §1
# 4.2.6. Bcl-2 inhibition assay
# Mix all reagents thoroughly without foaming before use. Wash the microwells twice with approximately 300 μL Wash Buffer per well with thorough aspiration of microwell contents between washes. Take caution not to scratch the surface of the microwells.
# After the last wash, empty the wells and tap microwell strips on absorbent pad or paper towel to remove excess Wash Buffer. Use the microwell strips immediately after washing or place upside down on a wet absorbent paper for not longer than 15 minutes.
# Add 100 μL of Sample Diluent in duplicate to all standard wells and to the blank wells. Prepare standard (1:2 dilution) in duplicate ranging from 32 ng/mL to 0.5 ng/mL. Add 100 μL of Sample Diluent, in duplicate, to the blank wells.
# Add 80 μL of Sample Diluent, in duplicate, to the sample wells. Add 20 μL of each Sample, in duplicate, to the designated wells. Add 50 μL of diluted biotin-conjugate to all wells, including the blank wells. Cover with a plate cover and incubate at room temperature, on a microplate shaker at 100 rpm if available, for 2 hours. Remove plate cover and empty the wells. Wash microwell strips 3 times as described in step 2. Add 100 μL of diluted Streptavidin-HRP to all wells, including the blank wells. Cover with a plate cover and incubate at room temperature, on a microplate shaker at 100 rpm if available, for 1 hour. Remove plate cover and empty the wells. Wash microwell strips […]
# 3 times as described in step 2. Proceed to the next step. Pipette 100 μl of mixed TMB Substrate Solution to all wells, including the blanks. Incubate the microwell strips at room temperature (18° to 25°C) for about 15 minutes, if available on a rotator set at 100 rpm. Avoid direct exposure to intense light. The point, at which the substrate reaction is stopped, is often determined by the ELISA reader. Many ELISA readers record absorbance only up to 2.0 O.D. Therefore, the color development within individual microwells must be watched by the person running the assay and the substrate reaction stopped before positive wells are no longer properly detectable. Stop the enzyme reaction by quickly pipetting 100 μL of Stop Solution into each well, including the blank wells. It is important that the Stop Solution is spread quickly and uniformly throughout the microwells to completely inactivate the enzyme. Results must be read immediately after the Stop Solution is added or within one hour if the microwell strips are stored at 2 - 8°C in the dark. Read absorbance of each microwell on a spectrophotometer using 450 nm as the primary wavelength.
# 4.3. Statistical analysis
# Computerized Prism 5 program was used to statistically analyzed data using one-way ANOVA test followed by Tukey’s as post ANOVA for multiple comparison at P ≤.05.
# Data were presented as mean ± SEM.
# Bax = Bax activation assay; format: cell-based, human; conditions: PC-3 cell line
# Protocol: For more details, see Supplementary Materials.
# 4.2.5. Bax activation assay
# Bring all reagents, except the human Bax-α Standard, to room temperature for at least 30 minutes prior to opening. The human Bax -α Standard solution should not be left at room temperature for more than 10 minutes. All standards, controls and samples should be run in duplicate. Refer to the Assay Layout Sheet to determine the number of wells to be used and put any remaining wells with the desiccant back into the pouch and seal the ziploc. Store unused wells at 4 °C. Pipet 100 μL of Assay Buffer into the S0 ( 0 pg/mL standard) wells. Pipet 100 μL of Standards #1 through #6 into the appropriate wells. Pipet 100 μL of the Samples into the appropriate wells. Tap the plate gently to mix the contents. Seal the plate and incubate at room temperature on a plate shaker for 1 hour at ~500 rpm. Empty the contents of the wells and wash by adding 400 μL of wash solution to every well. Repeat the wash 4 more times for a total of 5 washes. After the final wash, empty or aspirate the wells and firmly tap the plate on a lint fr ee paper towel to remove any remaining wash buffer. Pipet 100 μL of yellow Antibody into each well, except the Blank. Seal the plate and incubate at room temperature on a plate shaker for 1 hour at ~500 rpm. Empty the contents of the wells and wash by addi ng 400 μL of […]
# the final wash, empty or aspirate the wells and firmly tap the plate on a lint free paper towel to remove any remaining wash buffer. Add 100 μL of blue Co njugate to each well, except the Blank. Seal the plate and incubate at room temperature on a plate shaker for 30 minutes at ~500 rpm. Empty the contents of the wells and wash by adding 400 μL of wash solution to every well. Repeat the wash 4 more times for a total of 5 washes .
# After the final wash, empty or aspirate the wells and firmly tap the plate on a lint free paper towel to remove any remaining wash buffer. Pipet 100 μL of Substrate Solution into each well. Incubate for 30 minutes at room temperature on a plate shaker at ~500 rpm. Pipet 100 μL Stop Solution to each well. Blank the plate reader against the Blank wells, read the optical density at 450 nm. Calculate the average net Optical Density (OD) bound for each standard and sample by subtracting the average Blank OD from the average OD for each standard and sample. Using linear graph paper, plot the Average Net OD for each standard versus Bax concentration in each standard.
# Approximate a straight line through the points. The concentration of Bax in the unknowns can be determined by interpolation. […]
# [3] = Figure 1, read-out: IC50 BRAF inhibitor
# [4] = text b8, read-out: IC50 anti-BRAF^V600E
compound,measurement,setting,value
COC(=O)c1ccc2[nH]c(-c3ccc(Cl)cc3)nc2c1 [Compound 2],IC50,BRAF^V600E [1]; [3],2 nM
same,IC50,BRAF^V600E [1]; [4],2000 nM
NNC(=O)c1ccc2[nH]c(-c3ccc(Cl)cc3)nc2c1 [Compound 3],IC50,BRAF^V600E [1]; [3],14 nM
same,IC50,BRAF^V600E [1]; [4],14000 nM
COc1ccc(-c2nc3cc(-c4nnc(SCC(=O)Nc5ccc(C(=O)/C=C/c6ccccc6)cc5)o4)ccc3[nH]2)cc1 [Compound 4],IC50,BRAF^V600E [2],1700 ± 200 nM
same,GI50,four cancer cell lines,1200 nM
"CN[C@@H]1C[C@H]2O[C@@](C)([C@@H]1OC)n1c3ccccc3c3c4c(c5c6ccccc6n2c5c31)C(=O)NC4 [staurosporine, reference compound]",Caspase-3 Conc,caspase-3,260 ± 5 pg/mL
same,caspase-3 protein level,caspase-3,260 ± 5 pg/mL
same,Bcl-2 Conc,Bcl-2,1.00 ng/mL
same,Bax Conc,Bax,170 pg/mL
same,Bax increase compared to untreated PC-3 cancer cells,Bax,24 fold
same,Bax level,Bax,170 pg/mL
